In patent US6914045B2, “Glycopeptide antibiotics” (Wyeth Holdings Corporation, priority 2001, dated 2005):
Converted amounts (≈) assume the structure as drawn.

Key:
Experiment in all cases: in vitro antibacterial evaluation, MIC by broth dilution
Assay type in all cases: cell-based
Staphylococcus sp. = conditions: broth dilution, 18 hours at 35° C.; for MIC Staphylococcus aureus (GC 1131): strain GC 1131
Method: (§1) Methods for in vitro Antibacterial Evaluation (Table 1)
(§2) The minimum inhibitory concentration (MIC), the lowest concentration of the antibiotic which inhibits growth of the test organism, is determined by the broth dilution method using Muller-Hinton II […] (Baltimore Biological Laboratories) following the recommendations of the National Committee for Clinical Laboratory Standards [Methods for dilution antimicrobial susceptibility tests for bacteria that grow aerobically, approved standard M7-A2, National Committee for Clinical Laboratory Standards, Villanova, Pa.].
(§3) An inoculum level of 5×10^5 CFU/mL, and a range of antibiotic concentrations (64-0.06 μg/mL) is used. […] The test organisms include a spectrum of Gram-positive bacteria comprised of Staphylococcus sp., Streptococcus sp. and Enterococcus sp. These organisms include recent clinical isolates that are resistant to methicillin, penicillin and/or vancomycin.

Streptococcus sp. = conditions: broth dilution, 18 hours at 35° C.
Method: as §1, §2, §3

Enterococcus sp. = conditions: broth dilution, 18 hours at 35° C.
Method: as §1, §2, §3

Escherichia coli = conditions: 18 hours at 35° C.

## CC(c1ccc(Cl)cc1)C1NC(=O)CNC(=O)C(CO)NC(=O)C(C(O)C2CNC(=N)N2C2OC(CO)C(O)C(O)C2O)NC(=O)C(C(O)C2CNC(=N)N2)NC(=O)C(Cc2ccc(OC3OC(CO)C(OC4OC5COC(C6CCCCC6)OC5C(O)C4O)C(O)C3O)cc2)NC1=O (stereo not shown) [Example 193]
Staphylococcus sp.; inoculum 5×10^5 CFU/mL
  MIC Staphylococcus aureus (GC 1131): 1 µg/mL (≈ 0.702 µM)
Staphylococcus sp.; strain ATCC 29213
  MIC Staphylococcus aureus (ATCC 29213): 0.5 µg/mL (≈ 0.351 µM)
Staphylococcus sp.
  MIC Staphylococcus aureus (GC 1131): 1 µg/mL (≈ 0.702 µM)
Staphylococcus sp.; strain GC 3051
  MIC Staphylococcus aureus (GC 3051): 1 µg/mL (≈ 0.702 µM)
Staphylococcus sp.; strain GC 3053
  MIC Staphylococcus aureus (GC 3053): 0.5 µg/mL (≈ 0.351 µM)
Staphylococcus sp.; strain GC 4541
  MIC Staphylococcus aureus (GC 4541): 0.5 µg/mL (≈ 0.351 µM)
Staphylococcus sp.; strain GC 4542
  MIC Staphylococcus aureus (GC 4542): 0.25 µg/mL (≈ 0.176 µM)
Staphylococcus sp.; strain GC 4543
  MIC Staphylococcus aureus-SMITH (GC 4543): 0.5 µg/mL (≈ 0.351 µM)
Staphylococcus sp.; strain GC 4544
  MIC Staphylococcus aureus (GC 4544): 1 µg/mL (≈ 0.702 µM)
Staphylococcus sp.; strain GC 4545
  MIC Staphylococcus aureus (GC 4545): 0.5 µg/mL (≈ 0.351 µM)
Staphylococcus sp.; strain GC 4546
  MIC Staphylococcus haemolyticus (GC 4546): 0.5 µg/mL (≈ 0.351 µM)
Staphylococcus sp.; strain GC 4547
  MIC Coagulase Negative Staphylococcus (GC 4547): 1 µg/mL (≈ 0.702 µM)
Staphylococcus sp.; strain GC 4548
  MIC Coagulase Negative Staphylococcus (GC 4548): 0.25 µg/mL (≈ 0.176 µM)
Staphylococcus sp.; strain GC 4549
  MIC Coagulase Negative Staphylococcus (GC 4549): 0.25 µg/mL (≈ 0.176 µM)
Staphylococcus sp.; strain GC 4551
  MIC Coagulase Negative Staphylococcus (GC 4551): 0.5 µg/mL (≈ 0.351 µM)
Staphylococcus sp.; strain GC 6257
  MIC Coagulase Negative Staphylococcus (GC 6257): 0.25 µg/mL (≈ 0.176 µM)
Streptococcus sp.
  MIC Streptococcus agalactiae (GC 4564): <0.06 µg/mL
  MIC Streptococcus pneumoniae (ATCC 6301): 0.12 µg/mL (≈ 0.0843 µM)
  MIC Streptococcus pneumoniae (GC 1894): <0.06 µg/mL
  MIC Streptococcus pneumoniae (GC 4565): <0.06 µg/mL
  MIC Streptococcus pyogenes (GC 4563): <0.06 µg/mL
Streptococcus sp.; inoculum 5×10^5 CFU/mL, strain ATCC 6301
  MIC Streptococcus pneumoniae (ATCC 6301): 0.12 µg/mL (≈ 0.0843 µM)
Streptococcus sp.; inoculum 5×10^5 CFU/mL, strain GC 1894
  MIC Streptococcus pneumoniae (GC 1894): <0.06 µg/mL
Streptococcus sp.; inoculum 5×10^5 CFU/mL, strain GC 4563
  MIC Streptococcus pyogenes (GC 4563): <0.06 µg/mL
Streptococcus sp.; inoculum 5×10^5 CFU/mL, strain GC 4564
  MIC Streptococcus agalactiae (GC 4564): <0.06 µg/mL
Streptococcus sp.; inoculum 5×10^5 CFU/mL, strain GC 4565
  MIC Streptococcus pneumoniae (GC 4565): <0.06 µg/mL
Enterococcus sp.
  MIC Enterococcus avium (GC 4558): 2 µg/mL (≈ 1.4 µM)
  MIC Enterococcus faecalis (ATCC 29212): 1 µg/mL (≈ 0.702 µM)
  MIC Enterococcus faecalis (GC 2242): 1 µg/mL (≈ 0.702 µM)
  MIC Enterococcus faecalis (GC 2691): 2 µg/mL (≈ 1.4 µM)
  MIC Enterococcus faecalis (GC 3059): 1 µg/mL (≈ 0.702 µM)
  MIC Enterococcus faecalis (GC 4552): 1 µg/mL (≈ 0.702 µM)
  MIC Enterococcus faecalis (GC 4553): 2 µg/mL (≈ 1.4 µM)
  MIC Enterococcus faecalis (GC 4554): 2 µg/mL (≈ 1.4 µM)
  MIC Enterococcus faecalis (GC 6189): 0.5 µg/mL (≈ 0.351 µM)
  MIC Enterococcus faecium (GC 2243): 1 µg/mL (≈ 0.702 µM)
  MIC Enterococcus faecium (GC 4556): 1 µg/mL (≈ 0.702 µM)
  MIC Enterococcus faecium (GC 4557): 2 µg/mL (≈ 1.4 µM)
Enterococcus sp.; inoculum 5×10^5 CFU/mL, strain ATCC 29212
  MIC Enterococcus faecalis (ATCC 29212): 1 µg/mL (≈ 0.702 µM)
Enterococcus sp.; inoculum 5×10^5 CFU/mL, strain GC 2242
  MIC Enterococcus faecalis (GC 2242): 1 µg/mL (≈ 0.702 µM)
Enterococcus sp.; inoculum 5×10^5 CFU/mL, strain GC 2243
  MIC Enterococcus faecium (GC 2243): 1 µg/mL (≈ 0.702 µM)
Enterococcus sp.; inoculum 5×10^5 CFU/mL, strain GC 2691
  MIC Enterococcus faecalis (GC 2691): 2 µg/mL (≈ 1.4 µM)
Enterococcus sp.; inoculum 5×10^5 CFU/mL, strain GC 3059
  MIC Enterococcus faecalis (GC 3059): 1 µg/mL (≈ 0.702 µM)
Enterococcus sp.; inoculum 5×10^5 CFU/mL, strain GC 4552
  MIC Enterococcus faecalis (GC 4552): 1 µg/mL (≈ 0.702 µM)
Enterococcus sp.; inoculum 5×10^5 CFU/mL, strain GC 4553
  MIC Enterococcus faecalis (GC 4553): 2 µg/mL (≈ 1.4 µM)
Enterococcus sp.; inoculum 5×10^5 CFU/mL, strain GC 4554
  MIC Enterococcus faecalis (GC 4554): 2 µg/mL (≈ 1.4 µM)
Enterococcus sp.; inoculum 5×10^5 CFU/mL, strain GC 4556
  MIC Enterococcus faecium (GC 4556): 1 µg/mL (≈ 0.702 µM)
Enterococcus sp.; inoculum 5×10^5 CFU/mL, strain GC 4557
  MIC Enterococcus faecium (GC 4557): 2 µg/mL (≈ 1.4 µM)
Enterococcus sp.; inoculum 5×10^5 CFU/mL, strain GC 4558
  MIC Enterococcus avium (GC 4558): 2 µg/mL (≈ 1.4 µM)
Enterococcus sp.; inoculum 5×10^5 CFU/mL, strain GC 6189
  MIC Enterococcus faecalis (GC 6189): 0.5 µg/mL (≈ 0.351 µM)
Escherichia coli
  MIC Escherichia coli (GC 4559): 32 µg/mL (≈ 22.5 µM)
  MIC Escherichia coli (GC 4560): 2 µg/mL (≈ 1.4 µM)
